Test results reported in PMC8069832, “New Amides and Phosphoramidates Containing Selenium: Studies on Their Cytotoxicity and Antioxidant Activities in Breast Cancer” (Antioxidants, 2021).
Where two headings read alike, the source gives them in different places.

How the values were obtained:
[1] = DPPH radical scavenging assay; conditions: for DPPH activity inhibition: 0.03 mg/mL, after 30 min
Method: The DPPH (1,1-diphenyl-2-picrylhydrazyl radical) assay measures the hydrogen donation ability of the antioxidant to convert the stable DPPH free radical into 1,1-diphenyl-2-(2,4,6-trinitrophenyl)-hydrazine. After radical reaction with the compounds, a decrease in the absorbance was detected at 517 nm, which is accompanied by a change of color from violet to light-yellow. The target compounds were dissolved in methanol to make 1 mg/mL stock solutions, which were diluted to five concentrations as test samples. Ascorbic acid was used as a standard, and the experiment was carried out on 96-well plates. The DPPH solution was prepared at a 100 µM concentration. For each test, 100 µL of DPPH solution was added to 100 µL of methanolic solution containing the tested derivatives, and the absorbance was determined at different time points. All the measurements were carried out in triplicate. Results were expressed as the percentage of the radical scavenged, calculated using the following formula:(1) % DPPH radical scavenging=Acontrol − Asample/Acontrol × 100 where Acontrol refers to the absorbance of the negative control, and Asample refers to the absorbance of the tested compounds. Results are expressed as a percentage of DPPH radical scavenged ± SEM.
. Ascorbic acid and Trolox were used as radical scavenger gold standards. […]. No correlation was found for either structure–radical scavenging activity or antitumor–radical scavenging activity, except for compound I.2f, one of the selected cytotoxic agents. To further confirm this antioxidant activity, three compounds (I.1e, I.1g and I.2i) were also evaluated as DPPH radical scavengers at a lower concentration of 0.003 mg/mL (Figure 3B).

MCF-7 = assay: cells; conditions: Homo sapiens, MCF7, 48 h; for activity at 10 µM: read-out: Cell growth (%) MCF-7; for GI50: read-out: GI50 MCF-7, 48 h, average ± SEM; for CC50: read-out: LC50 MCF-7; for IC (TGI): read-out: TGI MCF-7
CCRF-CEM = assay: cells; conditions: Homo sapiens, 48 h; for activity at 10 µM: read-out: Cell growth (%) CCRF-CEM; for GI50: read-out: GI50 CCRF-CEM; for CC50: read-out: LC50 CCRF-CEM; for IC (TGI): read-out: TGI CCRF-CEM
HT-29 = assay: cells; conditions: Homo sapiens, HT-29, 48 h; for activity at 10 µM: read-out: Cell growth (%) HT-29; for GI50: read-out: GI50 HT-29; for CC50: read-out: LC50 HT-29; for IC (TGI): read-out: TGI HT-29
HTB-54 = assay: cells; format: cell-based; conditions: Homo sapiens; for CC50: read-out: LC50 HTB54; for GI50: read-out: GI50 HTB54; for IC (TGI): read-out: TGI HTB54
Method: (§1) Cell lines were provided by the European Collection of Cell Cultures (ECACC) or by the American Type Culture Collection (ATCC). Seven cell lines were used: MCF-7 (breast adenocarnicoma), 184B5 (nonmalignant, mammary gland derived), CCRF-CEM (lymphoblastic leukemia), HT-29 (colon carcinoma), HTB-54 (lung carcinoma), BEAS-2B (nonmalignant, derived from the bronchial epithelium) and PC-3 (prostate carcinoma). MCF-7, CCRF-CEM, HT-29, HTB-54, BEAS-2B and PC-3 cell lines were grown in RPMI medium (Gibco) supplemented with 10% fetal bovine serum (FBS; Gibco), 100 units/mL penicillin and […] streptomycin (Gibco). 184B5 cells were grown in DMEM/F12 medium supplemented with 5% FBS, 1 × ITS (Lonza), 100 nM hydrocortisone (Aldich), 2 mM sodium pyruvate (Lonza), 20 ng/mL EGF (Sigma-Aldrich), 0.3 nM trans-retinoic acid (Sigma-Aldrich), 100 units/mL penicillin and […] streptomycin. Cells were maintained at 37 °C and 5% CO2.
(§2) The cytotoxic effect of each substance was tested by the MTT method. Each compound was initially dissolved in DMSO at a concentration of 0.01 M, and serial dilutions were prepared with nonsupplemented medium. The cytotoxic effect of each compound was tested at 50 and 10 µM as a first screening. […]
(§3) A total of 1 × 10^4 cells/well in 96-well plates were treated with increasing concentrations of the corresponding compounds for 48 h at 37 °C in a humidified atmosphere containing 5% CO2. Then, cells were incubated with 50 µL of MTT (2 mg/mL stock) for 4 h. The medium was then removed by aspiration, and the formazan crystals were dissolved in […] of DMSO. […] Data were obtained from at least 3 independent experiments performed in quadruplicate. The standard error of the means (SEM) for the cytotoxic parameters was calculated applying the standard deviation formula to the mean values of each parameter for the three independent experiments performed.
(§4) . Cisplatin was used as a standard drug. […]. […] The presence of electron-withdrawing groups (-NO2, -CF3, -Cl) in the phenyl ring favored the cytotoxic activity in the amides, but in the phosphoramidates, the best results were obtained for aliphatic chains methoxy (II.1b, II.2b) and ethoxy (II.1d, II.2d). […].

PC-3 = assay: cells; format: cell-based; conditions: Homo sapiens; for LC50: read-out: LC50 PC-3; for GI50: read-out: GI50 PC-3; for IC (TGI): read-out: TGI PC-3
Method: as §1, §2, §3, §4

[2] = MTT cytotoxicity in nonmalignant mammary gland derived cells; format: cell-based; conditions: human; for CC50: nonmalignant cells, 48 h, read-out: LC50 184B5
Method: as §1, §2, §3, §4
(§5) The lack of selectivity toward cancerous cells is one of the major issues during the discovery and development of new anticancer agents. Therefore, we evaluated the cytotoxic activity of our compounds against two cell lines derived from nonmalignant breast tissue (184B5) and no malignant bronchial epithelium (BEAS-2B) (Table 2). […].

184B5 = assay: as above; format: cell-based; conditions: for GI50 / IC (TGI): Homo sapiens, 184B5, nonmalignant cells, 48 h; for GI50: read-out: GI50 184B5; for IC (TGI): read-out: TGI 184B5; for Selectivity index (SI) = GI50 (184B5)/GI50 (MCF-7): breast
Method: as §1, §2, §3, §4, §5

[3] = MTT cytotoxicity in nonmalignant bronchial epithelium cells; format: cell-based; conditions: human; for LC50 (50% lethal concentration): nonmalignant cells, 48 h, read-out: LC50 BEAS-2B
Method: as §1, §2, §3, §4, §5

BEAS-2B = assay: as above; format: cell-based; conditions: for GI50 / IC (TGI): Homo sapiens, BEAS-2B, nonmalignant cells, 48 h; for GI50: read-out: GI50 BEAS-2B; for IC (TGI): read-out: TGI BEAS-2B; for Selectivity index (SI) = GI50 (BEAS-2B)/GI50 (HTB-54): lung
Method: as §1, §2, §3, §4, §5

## CSc1ccc(C(=O)Nc2ccc([Se][Se]c3ccc(NC(=O)c4ccc(SC)cc4)cc3)cc2)cc1 [I.1n]
[1]
  DPPH activity inhibition: greater than 35%
MCF-7
  activity at 10 µM: 64%
CCRF-CEM
  activity at 10 µM: 72.1%
HT-29
  activity at 10 µM: 50.6%

## Cc1ccc(C(=O)Nc2ccc([Se][Se]c3ccc(NC(=O)c4ccc(C)cc4)cc3)cc2)cc1 [I.1g]
[1]; 0.003 mg/mL
  DPPH radical scavenging activity: some moderate effect was observed
[1]
  DPPH activity inhibition: greater than 35%
MCF-7
  activity at 10 µM: 57.5%
CCRF-CEM
  activity at 10 µM: 105%
HT-29
  activity at 10 µM: 109%

## N#C[Se]c1ccc(NC(=O)c2ccno2)cc1 [I.2j]
[1]
  DPPH activity inhibition: greater than 35%
MCF-7
  activity at 10 µM: 91%
CCRF-CEM
  activity at 10 µM: 48.4%
HT-29
  activity at 10 µM: 90.8%

## O=C(Nc1ccc([Se][Se]c2ccc(NC(=O)c3ccc(Cl)cc3)cc2)cc1)c1ccc(Cl)cc1 [I.1b]
HTB-54; HTB-54, 48 h
  CC50: > 100 µM
HTB-54; HTB-54, 48 h, average ± SEM
  GI50: > 100 µM
  IC (TGI): > 100 µM
PC-3; PC-3, 48 h
  LC50: > 100 µM
PC-3; PC-3, 48 h, average ± SEM
  GI50: 7.7 ± 2.2 µM
  IC (TGI): > 100 µM
[2]
  LC50 (50% lethal concentration) at 48 h: > 100 µM
184B5
  GI50: 7.08 µM
  IC (TGI): > 100 µM
  Selectivity index (SI) = GI50 (184B5)/GI50 (MCF-7): 1.57
[3]
  LC50 (50% lethal concentration) at 48 h: > 100 µM
BEAS-2B
  GI50: 1.11 µM
  IC (TGI): 42.8 µM
MCF-7
  activity at 10 µM: 19.8%
  GI50: 4.6 ± 0.5 µM
  CC50: > 100 µM
  IC (TGI): > 100 µM
CCRF-CEM
  activity at 10 µM: 45.5%
  GI50: 9 ± 1.6 µM
  CC50: > 100 µM
  IC (TGI): 72.6 ± 1.1 µM
HT-29
  activity at 10 µM: -10.7%
  GI50: 3 ± 1.8 µM
  CC50: > 100 µM
  IC (TGI): 7.7 ± 0.6 µM

## CCOP(=O)(Nc1ccc([Se][Se]c2ccc(NP(=O)(OCC)OCC)cc2)cc1)OCC [II.1d]
HTB-54; HTB-54, 48 h, average ± SEM
  GI50: 5.9 ± 0.3 µM
  CC50: 9.4 ± 0.1 µM
  IC (TGI): 7.7 ± 0.2 µM
PC-3; PC-3, 48 h, average ± SEM
  GI50: 6.4 ± 0.2 µM
  LC50: 35.1 ± 4.9 µM
  IC (TGI): 8.6 ± 0.2 µM
[2]
  CC50: 8.58 µM
184B5
  GI50: 5.45 µM
  IC (TGI): 7.01 µM
  Selectivity index (SI) = GI50 (184B5)/GI50 (MCF-7): 2.38
[3]
  LC50 (50% lethal concentration): 8.54 µM
BEAS-2B
  GI50: 5.43 µM
  IC (TGI): 6.98 µM
  Selectivity index (SI) = GI50 (BEAS-2B)/GI50 (HTB-54): 0.92
MCF-7
  activity at 10 µM: -57.5%
  GI50: 2.3 ± 0.2 µM
  CC50: 8.8 ± 0.8 µM
  IC (TGI): 4.2 ± 0.3 µM
CCRF-CEM
  activity at 10 µM: -86.7%
  GI50: 0.4 ± 0.2 µM
  CC50: 3.4 ± 0.2 µM
  IC (TGI): 1.7 ± 0.2 µM
HT-29
  activity at 10 µM: -69.8%
  GI50: 1.7 ± 0.1 µM
  CC50: 4.3 ± 0.1 µM
  IC (TGI): 3 ± 0.1 µM

## COP(=O)(Nc1ccc([Se][Se]c2ccc(NP(=O)(OC)OC)cc2)cc1)OC [II.1b]
HTB-54; HTB-54, 48 h, average ± SEM
  GI50: 7.2 ± 3.2 µM
  CC50: 76 ± 4.2 µM
  IC (TGI): 37.1 ± 3.2 µM
PC-3; PC-3, 48 h, average ± SEM
  GI50: 17.1 ± 1.7 µM
  LC50: 76.6 ± 2.5 µM
  IC (TGI): 46.9 ± 2.3 µM
[2]
  CC50: 8.65 µM
184B5
  GI50: 5.75 µM
  IC (TGI): 7.2 µM
  Selectivity index (SI) = GI50 (184B5)/GI50 (MCF-7): 1.36
[3]
  LC50 (50% lethal concentration): > 100 µM
BEAS-2B
  GI50: 6.48 µM
  IC (TGI): 41.3 µM
  Selectivity index (SI) = GI50 (BEAS-2B)/GI50 (HTB-54): 0.84
MCF-7
  activity at 10 µM: -13.9%
  GI50: 4.3 ± 0.6 µM
  CC50: 56.9 ± 5.4 µM
  IC (TGI): 8.8 ± 0.1 µM
CCRF-CEM
  activity at 10 µM: -74.1%
  GI50: 2 ± 0.1 µM
  CC50: 8 ± 2.8 µM
  IC (TGI): 3.9 ± 0.4 µM
HT-29
  activity at 10 µM: 70.7%
  GI50: 20 ± 3.1 µM
  CC50: 74.9 ± 0.6 µM
  IC (TGI): 47.4 ± 2 µM

## O=C(Nc1ccc([Se][Se]c2ccc(NC(=O)c3ccco3)cc2)cc1)c1ccco1 [I.1h]
HTB-54; HTB-54, 48 h
  CC50: 76.3 ± 3.6 µM
HTB-54; HTB-54, 48 h, average ± SEM
  GI50: 20.8 ± 2.5 µM
  IC (TGI): 48.6 ± 1.8 µM
PC-3; PC-3, 48 h
  LC50: 65.6 ± 4.1 µM
PC-3; PC-3, 48 h, average ± SEM
  GI50: 2.3 ± 0.3 µM
  IC (TGI): 27.6 ± 2.8 µM
[2]
  LC50 (50% lethal concentration) at 48 h: 74.4 µM
184B5
  GI50: 19.9 µM
  IC (TGI): 47.2 µM
  Selectivity index (SI) = GI50 (184B5)/GI50 (MCF-7): 1.11
[3]
  LC50 (50% lethal concentration) at 48 h: 70.7 µM
BEAS-2B
  GI50: 10.6 µM
  IC (TGI): 40.6 µM
  Selectivity index (SI) = GI50 (BEAS-2B)/GI50 (HTB-54): 0.51
MCF-7
  activity at 10 µM: 63.5%
  GI50: 18 ± 2.3 µM
  CC50: 76.6 ± 2.5 µM
  IC (TGI): 47.3 ± 2.4 µM
CCRF-CEM
  activity at 10 µM: 34.1%
  GI50: 4.1 ± 2.4 µM
  CC50: 72.8 ± 2.9 µM
  IC (TGI): 36.1 ± 1.4 µM
HT-29
  activity at 10 µM: 62.1%
  GI50: 17.4 ± 1.9 µM
  CC50: 74.3 ± 0.7 µM
  IC (TGI): 45.8 ± 1.2 µM
